Reference: patent US10172863B2, “Purine derivatives useful as HSP90 inhibitors” (Sloan-Kettering Institute for Cancer Research, priority 2009, dated 2019)

The molecules below were run on SKBr3 cell Hsp90 (assay: EC50 for Hsp90 binding in SKBr3 cell lysate). Conditions: read-out: EC50, binding to SKBr3 cell Hsp90.

EC50	SMILES
97 nM	CC(C)NCCCn1c(Sc2cc3ccccc3cc2I)nc2c(N)ncnc21 [Compound 6B-25, 8-(3-iodonaphthalen-2-ylthio)-9-(3-(isopropylamino)propyl)-9H-purin-6-amine]
84 nM	COc1ccc(-c2ccco2)c(Sc2nc3c(N)ncnc3n2CCNCC(C)(C)C)c1 [Compound 7C-13, 8-(2-(furan-2-yl)-5-methoxyphenylthio)-9-(2-(neopentylamino)ethyl)-9H-purin-6-amine]
240 nM	COc1ccc(-c2cccs2)c(Sc2nc3c(N)ncnc3n2CCNCC(C)(C)C)c1 [Compound 7D-3, 8-(5-methoxy-2-(thiophen-2-yl)phenylthio)-9-(2-(neopentylamino)ethyl)-9H-purin-6-amine]
32 nM	COc1ccc(-c2cc[nH]n2)c(Sc2nc3c(N)ncnc3n2CCNCC(C)(C)C)c1 [Compound 7E-6, 8-(5-methoxy-2-(1H-pyrazol-3-yl)phenylthio)-9-(2-(neopentylamino)ethyl)-9H-purin-6-amine]
